Experimental data: US5125099A, “Obtaining heteropolysaccharide-producing microorganism and the microorganism agrobacterium radiobacter NCIB 40018” (Shell Internationale Research Maatschappij B.V., priority 1988, dated 1992)
“Also recorded” adds a separate entry of the source. Read-outs that look alike come from different tables or passages of the source.

Columns and labels:
[1] = system: whole cells of A. radiobacter; experiment: [14C]glucose uptake by whole cells grown under glucose limitation; type: cell-based, Agrobacterium radiobacter NCIB 11883; conditions: for Effect on rate of [14C]glucose uptake by whole cells (in words): unlabelled analogue at 40:1 molar excess, glucose-limited cells; for Glucose uptake rate after pre-incubation with respiratory substrate (in words): 10 mM, pre-incubated before addition of [14C]glucose
Procedure: Organism and growth conditions. Agrobacterium radiobacter NCIB 11883 was grown at 30° C. in continuous culture (D=0.045 h^-1) under glucose limitation using a chemically defined medium (Linton et al., 1987) supplemented with glucose (4 gl^-1), ammonium sulfate (3 gl^-1) and nitrilotriacetic acid (0.142 gl^-1). The organism was grown in an LH Series 500 chemostat of 2 l working volume at a steady-state biomass density of 2.1 g dry wt 1^-1.
Measurement of glucose uptake. Rates of glucose uptake were determined by measuring the incorporation of D-[U-^14 C]glucose into whole cells over a period of 60 s. Assays were carried out in an open-topped Rank oxygen electrode vessel containing 1 ml 20 mM HEPES/KOH buffer, pH 7.0, and 1 mg dry wt cells. The contents of the vessel were maintained at 30° C. and mixed continuously using a magnetic stirrer. Assays were started by adding D-[U-^14 C]glucose [2 mCi mmol^-1 (74 MBq mmol^-1; 0.5 uCi (18.5 KBl)] to give a final concentration of 250 uM. Samples (50 ul) of the reaction mixture were withdrawn at 15 s intervals and the cells were collected on nitrocellulose filters of 0.45 uM pore size (2.5 cm dia.; Sartorius) by means of a manifold connected to a vacuum line. The filters were washed immediately using 3 ml 20 mM HEPES, pH 7.0, dried under an infra-red lamp and then immersed in 3 ml of Fisofluor 3 scintillant (Fisons Ltd.). The extent of incorporation of [^14 C]glucose into the cells was determined by counting the radioactivity on the filters using a Hewlett Packard Tri-Carb liquid scintillation counter (80-85% efficiency).
In order to measure glucose uptake rates at low concentrations of substrate (1-5 uM) the cell density was reduced to 0.01 mg ml^-1, the specific activity of the [^14 C]glucose was increased to 84 mCi mmol^-1 (3.2 Gbq mmol^-1) and the rate of incorporation of ^14 C-label into cells was measured over a period of 35 s.
The substrate specificity of the transport system was investigated by determining the extent to which unlabelled glucose analogues (10 mM) reduced the rate of uptake of [^14 C]glucose (250 uM). Cell suspensions were incubated with analogues for 5 s prior to addition of [^14 C]glucose.

GBP1 [2] = experiment: Effect of unlabelled glucose analogues on binding of [14C]glucose to GBP1, equilibrium dialysis; design: species or system Agrobacterium radiobacter; conditions: for [14C]glucose bound GBP1: 0.5 nmol pure protein, 3 nmol [14C]glucose plus 120 nmol unlabelled analogue, 30 h, 4° C.; for Effect on binding of glucose to GBP1 (in words): competition with [14C]glucose in vitro
Procedure: (§1) The capacity of glucose analogues to reduce the extent of binding of D-[U-^14 C]glucose to pure proteins was determined by modifying the assay procedure as follows. One chamber of each cell contained 0.5 nmol pure protein in 0.3 ml bis-Tris, pH 6.8, and the other chamber was loaded with 0.3 ml of buffer containing 3 nmol D-[U-^14 C]glucose [85 mCi mmol^-1 (3.2 GBq mmol )] plus 120 nmol of an unlabelled glucose analogue. The quantity of [^14 C]glucose that bound to the proteins in the presence and absence of unlabelled glucose analogues was determined after 30 h incubation.

[3] = system: A. radiobacter strain AR18; experiment: Effect of glucose analogues on [14C]glucose uptake by strain AR18 grown under glucose limitation; type: cell-based, Agrobacterium radiobacter; conditions: for activity at 10000 µM: Agrobacterium radiobacter, AR18, pH 7, unlabelled sugars 10 mM, [14C]glucose 250M, glucose-limited culture D = 0.045 h^-1, control rate 72 nmol min^-1 (mg dry wt)^-1
Procedure: (§2) Measurement of glucose uptake. […] Assays were carried out in an open-topped Rank oxygen electrode vessel containing 1 ml 20 mM HEPES/KOH buffer, pH 7.0, and 1 mg dry wt cells. The contents of the vessel were maintained at 30° C. and mixed continuously using a magnetic stirrer. […] Samples (50 ul) of the reaction mixture were withdrawn at 15 s intervals and the cells were collected on nitrocellulose filters of 0.45 uM pore size (2.5 cm dia.; Sartorius) by means of a manifold connected to a vacuum line. The filters were washed immediately using 3 ml 20 mM HEPES, pH 7.0, dried under an infra-red lamp and then immersed in 3 ml of Fisofluor 3 scintillant (Fisons Ltd.).

[4] = system: A. radiobacter strain AR9; experiment: Effect of glucose analogues on [14C]glucose uptake by strain AR9 grown under glucose limitation; type: cell-based, Agrobacterium radiobacter; conditions: for activity at 10000 µM: Agrobacterium radiobacter, AR9, pH 7, unlabelled sugars 10 mM, [14C]glucose 250M, glucose-limited culture D = 0.045 h^-1, control rate 63 nmol min^-1 (mg dry wt)^-1
Procedure: as §2

GBP2 [5] = experiment: Effect of unlabelled glucose analogues on binding of [14C]glucose to GBP2, equilibrium dialysis; design: species or system Agrobacterium radiobacter; conditions: for [14C]glucose bound GBP2: 0.5 nmol pure protein, 3 nmol [14C]glucose plus 120 nmol unlabelled analogue, 30 h, 4° C.; for Effect on binding of glucose to GBP2 (in words): competition with [14C]glucose in vitro
Procedure: as §1

[6] = system: A. radiobacter strain AR18; experiment: [14C]glucose uptake by strain AR18 grown under ammonia limitation; type: cell-based; conditions: Agrobacterium radiobacter, AR18, pH 7; ammonia-limited growth, forty-fold molar excess over [14C]glucose; read-out: Reduction of rate of glucose uptake by strain AR18
Procedure: (§4) Measurement of glucose uptake. Rates of glucose uptake were determined by measuring the incorporation of D-[U-^14 C]glucose into whole cells over a period of 60 s. Assays were carried out in an open-topped Rank oxygen electrode vessel containing 1 ml 20 mM HEPES/KOH buffer, pH 7.0, and 1 mg dry wt cells. The contents of the vessel were maintained at 30° C. and mixed continuously using a magnetic stirrer. Assays were started by adding D-[U-^14 C]glucose [2 mCi mmol^-1 (74 MBq mmol^-1 ; 0.5 uCi (18.5 KBl)] to give a final concentration of 250 uM. Samples (50 ul) of the reaction mixture were withdrawn at 15 s intervals and the cells were collected on nitrocellulose filters of 0.45 uM pore size (2.5 cm dia.; Sartorius) by means of a manifold connected to a vacuum line. The filters were washed immediately using 3 ml 20 mM HEPES, pH 7.0, dried under an infra-red lamp and then immersed in 3 ml of Fisofluor 3 scintillant (Fisons Ltd.). The extent of incorporation of [^14 C]glucose into the cells was determined by counting the radioactivity on the filters using a Hewlett Packard Tri-Carb liquid scintillation counter (80-85% efficiency). Glucose uptake rates were measured in triplicate for each batch of cells and the standard errors never exceeded 10% of the mean values. […]

[7] = system: A. radiobacter strain AR9; experiment: [14C]glucose uptake by strain AR9 grown under ammonia limitation; type: cell-based; conditions: Agrobacterium radiobacter, AR9, pH 7; ammonia-limited growth, forty-fold molar excess over [14C]glucose; read-out: Reduction of rate of glucose uptake by strain AR9
Procedure: as §4

GBP1 [8] = experiment: Binding of [14C]glucose to pure GBP1, equilibrium dialysis, Scatchard analysis; design: species or system Agrobacterium radiobacter
Procedure: (§3) Determination of binding constants using equilibrium dialysis. This was carried out at 4° C. using an eight-cell rotating module (Hoefer Scientific Instruments, San Fransisco, Calif., U.S.A.). Each cell was divided into two chambers of 0.5 ml volume using a dialysis membrane (Mr cut-off=6-8000). Pure protein (0.5 nmol) was added to one chamber of each cell in 0.3 ml bis-Tris, pH 6.8. Each of the opposing chambers was loaded with 0.3 ml bis-Tris (0.3 ml) containing D-[U-^14 C]glucose [270 mCi mmol^-1 (10 GBq mmol^-1)], the concentration of which was varied over an appropriate range. The module was rotated at 10 rev min^-1 for 30 h (by which time equilibrium had been attained) and samples (50 ul) were taken in triplicate from each chamber and counted in 3 ml Fisofluor 2 (Fisons Ltd.). The data were analyzed according to the method of Scatchard (1949).

[9] = system: third protein (Mr 30500), BP3; experiment: Binding of [14C]glucose to the third periplasmic protein (BP3), equilibrium dialysis; design: species or system Agrobacterium radiobacter
Procedure: as §3

GBP2 [10] = experiment: Binding of [14C]glucose to pure GBP2, equilibrium dialysis, Scatchard analysis; design: species or system Agrobacterium radiobacter
Procedure: as §3

[11] = system: whole cells of A. radiobacter; experiment: Capacity of whole cells to accumulate [14C]glucose; type: cell-based, Agrobacterium radiobacter NCIB 11883
Procedure: The capacity of A. radiobacter to accumulate glucose was determined by incubating cell suspensions (1 mg dry wt ml^-1) with D-[U-^14 C]glucose [84 mCi mmol^-1 (3.2 Gbq mmol^-1); 20M initial concentration). Samples (100 ul) of the suspension were withdrawn 10s after adding the glucose and the cells were collected on nitrocellulose filters (0.45 um pore size) using vacuum filtration. The filters were washed immediately using 3 ml buffer and immersed in 20 ml boiling water. Aqueous extracts prepared from four filters were pooled, lyophilized and the residue dissolved in 2 ml water. The glucose content of the cells was determined using liquid scintillation counting following separation of [^14 C]glucose from other labelled metabolites present in the extracts using paper chromatography. Samples of the filtrate plus washings were also counted in order to determine the extracellular concentration of glucose at the time of sampling.

[12] = glucose-limited culture, unlabelled sugar 10 mM

| SMILES | [14C]glucose bound GBP1 (GBP1 [2]) [% control value] | Effect on binding of glucose to GBP1 (in words) (GBP1 [2]) | activity at 10000 µM [3] [%] | activity at 10000 µM [4] [%] | [14C]glucose bound GBP2 (GBP2 [5]) [% control value] | Effect on binding of glucose to GBP2 (in words) (GBP2 [5]) | further results |
| --- | --- | --- | --- | --- | --- | --- | --- |
| O=CC[C@@H](O)[C@H](O)[C@H](O)CO [2-deoxy-D-glucose] | 96 | did not affect | 93 | 71 | 98 | did not affect | Effect on rate of [14C]glucose uptake by whole cells (in words) [1]: none of these unlabelled analogues appreciably reduced; also recorded: failed to reduce significantly; Effect on binding of glucose to GBP1 (in words) (GBP1 [2]; listed as 2-Deoxy-D-glucose): had no effect; Effect on rate of glucose uptake by strain AR18 (in words) [3, 12]: reduced the rate of glucose uptake to a relatively small extent; Effect on rate of glucose uptake by strain AR9 (in words) [4, 12]: reduced the rate of glucose uptake to a relatively small extent; Effect on binding of glucose to GBP2 (in words) (GBP2 [5]; listed as 2-Deoxy-D-glucose): had no effect |
| CO[C@H]1[C@H](O)[C@@H](CO)OC(O)[C@@H]1O (stereo partly drawn) [3-O-methyl-D-glucose] | 100 | did not affect | 111 | 99 | 103 | did not affect | Effect on rate of [14C]glucose uptake by whole cells (in words) [1]: none of these unlabelled analogues appreciably reduced; also recorded: failed to reduce significantly |
| OC1O[C@H](CCl)[C@@H](O)[C@H](O)[C@H]1O (stereo partly drawn) [6-chloro-6-deoxy-D-glucose] | 0 | variably decreased; also recorded: significantly reduced | 8 | 33 | 60 | variably decreased; also recorded: significantly reduced | – |
| C[C@@H](O)[C@@H](O)[C@H](O)[C@@H](O)C=O [6-deoxy-D-glucose] | 51 | variably decreased; also recorded: significantly reduced | 27 | 11 | 0 | variably decreased; also recorded: significantly reduced | – |
| C[C@@H](O)[C@H](O)[C@H](O)[C@@H](O)C=O [D-fucose] | 31 | only effective with GBP1 | 18 | 68 | 99 | only effective with GBP1 | – |
| O=C[C@H](O)[C@@H](O)[C@@H](O)[C@H](O)CO [D-galactose] | 2 | – | 8 | 75 | 99 | – | Effect on binding of glucose to GBP1 (in words) (GBP1 [2]; listed as D-Galactose): only effective with GBP1; inhibition at 10000 µM [6]: ~95%; inhibition at 10000 µM [7]: ~50%; Effect on binding of glucose to GBP2 (in words) (GBP2 [5]; listed as D-Galactose): only effective with GBP1 |
| O=C[C@H](O)[C@@H](O)[C@H](O)[C@H](O)CO [D-glucose] | 4 | – | 4 | 4 | 4 | – | Km ([1]; [14C]glucose varied over the range 1 M-1 mM, whole cells): < 1 µM; Kd (GBP1 [8]; as printed in the summary, read-out: KD of D-glucose for GBP1 (summary)): 230 nM; Kd (GBP1 [8]; equilibrium dialysis, 4° C., pH 6.8, read-out: KD of glucose for GBP1): 230 nM; Binding of D-glucose to the third protein (Mr 30500) (in words) [9]: no binding ability; Kd (GBP2 [10]; as printed in the summary, read-out: KD of D-glucose for GBP2 (summary)): 70 nM; Kd (GBP2 [10]; equilibrium dialysis, 4° C., pH 6.8, read-out: KD of glucose for GBP2): 70 nM; Accumulation ratio ([glucose]in/[glucose]out) [11]: > 2000; Accumulation ratio ([glucose]in/[glucose]out) ([11]; 10 s incubation, assuming an intracellular volume of 1-3 ul mg dry wt^-1): 2000-6000 |
| O=C[C@H](O)[C@@H](O)[C@H](O)CO [D-xylose] | 72 | significantly reduced | 64 | – | 2 | significantly reduced | – |
| N#CC(C#N)=NNc1ccc(OC(F)(F)F)cc1 [FCCP, carbonyl cyanide p-trifluoromethoxyphenylhydrazone] | – | – | – | – | – | – | Inhibition of glucose transport ([1]; at 20 M, added 10 s before glucose): approximately 95% |
| CO[C@H]1O[C@H](CO)[C@@H](O)[C@H](O)[C@H]1O [alpha-1-O-methyl-D-glucose] | 99 | did not affect | 111 | 99 | 104 | did not affect | Effect on rate of [14C]glucose uptake by whole cells (in words) [1]: none of these unlabelled analogues appreciably reduced; Effect on rate of [14C]glucose uptake by whole cells (in words) ([1]; listed as Alpha-1-O-methyl-D-glucose): failed to reduce significantly |
| CCO [ethanol] | – | – | – | – | – | – | Glucose uptake rate after pre-incubation with respiratory substrate (in words) [1]: did not increase |
| OCC(O)CO [glycerol] | – | – | – | – | – | – | Glucose uptake rate after pre-incubation with respiratory substrate (in words) [1]: did not increase |
